In ChEMBL document CHEMBL3714717, “Family of PFKFB3 inhibitors with anti-neoplastic activities” (2013):
Each block holds one compound with its values, some of them ahead of it. Calls of active or inactive are those of the source. No cut-off for these calls is given here.

Tests used:
Homo sapiens = species on record: Homo sapiens; assay: Growth inhibition of human CRL11174 cells incubated for 48 hrs by trypan blue dye exclusion assay; assay type: functional
A549 = assay: Growth inhibition of human A549 cells incubated for 48 hrs by trypan blue dye exclusion assay; assay type: functional, cell-based
HL-60 [1] = assay: Growth inhibition of human HL60 cells incubated for 48 hrs by trypan blue dye exclusion assay; assay type: functional, cell-based
K562 = assay: Growth inhibition of human K562 cells incubated for 48 hrs by trypan blue dye exclusion assay; assay type: functional, cell-based
MDA-MB-231 [2] = assay: Growth inhibition of human MDA-MB-231 cells incubated for 48 hrs by trypan blue dye exclusion assay; assay type: functional, cell-based
[3] = Solubility in Cremophore:EToH:saline solution in normal conditions using Amber vials after 2 hrs by HPLC method (reference value: 1 mg/ml at 0 hrs); assay type: physicochemical
[4] = Solubility in Cremophore:EToH:saline solution in normal conditions using Amber vials after 8 hrs by HPLC method (reference value: 1 mg/ml at 0 hrs); assay type: physicochemical
Lewis lung carcinoma = assay: Antitumor activity against mouse LLC cells implanted in C57Bc16 mouse assessed as inhibition of tumor size at 25 mg/kg, ip dosed on days 1,2 and 3 and 35 mg/kg, ip on days Antitumor activity against mouse LLC cells implanted in C57Bc16 mouse assessed as inhibition of tumor size at 25 mg/kg, ip dosed on days 7,8,9,13,14 and 15; assay type: functional, organism-based
[5] = Solubility in Cremophore:EToH:saline solution in normal conditions using Amber vials after 4 hrs by HPLC method (reference value: 1 mg/ml at 0 hrs); assay type: physicochemical
Jurkat [6] = assay: Inhibition of cell proliferation of human Jurkat cells incubated for 72 hrs by Alamar blue assay; assay type: functional, cell-based
[7] = biological target: T1, 6-phosphofructo-2-kinase/fructose-2,6-bisphosphatase 3 (Homo sapiens, UniProt Q16875); settings: 150 uM
T1 sequence (Q16875 whole entry): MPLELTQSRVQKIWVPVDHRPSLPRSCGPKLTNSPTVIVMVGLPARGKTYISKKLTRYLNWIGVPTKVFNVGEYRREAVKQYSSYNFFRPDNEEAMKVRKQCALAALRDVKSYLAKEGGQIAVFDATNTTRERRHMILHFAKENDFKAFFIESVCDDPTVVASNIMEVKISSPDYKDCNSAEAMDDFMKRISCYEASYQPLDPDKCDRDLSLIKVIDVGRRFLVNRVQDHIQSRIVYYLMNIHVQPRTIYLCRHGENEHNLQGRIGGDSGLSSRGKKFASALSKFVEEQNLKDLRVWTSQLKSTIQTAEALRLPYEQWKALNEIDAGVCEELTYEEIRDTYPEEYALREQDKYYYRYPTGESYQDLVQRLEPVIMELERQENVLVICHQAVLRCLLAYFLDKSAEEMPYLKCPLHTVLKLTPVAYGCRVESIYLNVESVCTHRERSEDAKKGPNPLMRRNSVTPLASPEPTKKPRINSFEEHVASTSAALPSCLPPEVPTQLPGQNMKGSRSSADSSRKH
Description: Inhibition of recombinant PFKFB3 (unknown origin) assessed as reduction in enzyme kinetic rate at 150 uM

Jurkat [8] = assay: […] cell cycle arrest in human Jurkat cells expressing inducible FLAG-tagged PFKFB assessed as accumulation at G2/M phase by propidium iodide staining based flow cytometry; assay type: functional
Jurkat [9] = assay: Reduction in NADH level in human Jurkat cells expressing inducible FLAG-tagged PFKFB at 10 uM after 16 hrs; assay type: functional, cell-based
Jurkat [10] = assay: Potency index, ratio of IC50 for growth inhibition of PFKFB3+/+ht/LT/Ras human Jurkat cells to IC50 for growth inhibition of PFKFB3+/-ht/LT/Ras human Jurkat cells; assay type: functional
Jurkat [11] = assay: Reduction in 2-deoxy-glucose uptake in human Jurkat cells expressing inducible FLAG-tagged PFKFB at 10 uM measured within 4 hrs using [14C]-2-deoxy-glucose by scintillation counting method; assay type: functional, cell-based
MDA-MB-231 [12] = assay: Antitumor activity against human MDA-MB-231 cells xenografted in Balb/c mouse assessed as tumor growth inhibition at 0.07 mg/g, ip dosed as cyclical regimen of 3 daily injections followed by 3 days of without treatment; assay type: functional
Jurkat [13] = assay: Inhibition of cell proliferation of human Jurkat cells expressing inducible FLAG-tagged PFKFB at 10 uM incubated for 36 hrs by trypan blue dye exclusion assay; assay type: functional, cell-based
Jurkat [14] = assay: Reduction in lactate secretion in human Jurkat cells expressing inducible FLAG-tagged PFKFB at 10 uM after 8 hrs by lactate oxidase based colorimetric assay; assay type: functional, cell-based
[15] = Potency index, ratio of IC50 for 2-DG to IC50 for test compound for growth inhibition of human NHBE cells immortalized with human telomerase and large-T antigen and transformed with mutated Ras protein at 1 uM incubated for 48 to 72 hrs by trypan blue dye exclusion assay; assay type: functional
Mus musculus [16] = assay: Reduction in [18F]-2-DG uptake in cardiac tissue of C57B1/6 mouse transplanted with mouse LLC cells at 0.07 mg/g, ip after 30 mins post dose by micro-PET method; assay type: functional, organism-based
Jurkat [17] = assay: Reduction in Fru-2,6-BP production in human Jurkat cells expressing inducible FLAG-tagged PFKFB at 10 uM measured within 4 hrs; assay type: functional, cell-based
NHBE [18] = assay: Growth inhibition of human NHBE cells immortalized with human telomerase and large-T antigen and transformed with mutated Ras protein at 1 uM incubated for 48 to 72 hrs by trypan blue dye exclusion assay; assay type: functional, cell-based
Jurkat [19] = assay: Suppression of glycolytic flux into alanine in human Jurkat cells expressing inducible FLAG-tagged PFKFB at 10 uM after 36 hrs by NMR spectroscopy; assay type: functional, cell-based
[20] = biological target: T1, 6-phosphofructo-2-kinase/fructose-2,6-bisphosphatase 3; assay: Mixed type inhibition of human PFKFB3 expressed in Escherichia coli BL21 (DE3) assessed as reduction in NADH consumption using fructose-6-phosphate incubated for 15 mins by spectrophotometry based pyruvate kinase and LDH enzyme coupled kinetic assay
[21] = Antitumor activity against human HL60 cells xenografted in Balb/c mouse assessed as tumor growth inhibition at 0.07 mg/g, ip dosed as 2 sequential daily injections followed by 7 consecutive days of without treatment; assay type: functional, HL-60
[22] = Growth inhibition of human NHBE cells at 33 uM incubated for 48 to 72 hrs by trypan blue dye exclusion assay; assay type: cell-based
Mus musculus [23] = assay: Reduction in [18F]-2-DG uptake in tumor of C57B1/6 mouse transplanted with mouse LLC cells at 0.07 mg/g, ip after 30 mins post dose by micro-PET method; assay type: functional, organism-based
HL-60 [24] = assay: Antitumor activity against human HL60 cells xenografted in Balb/c mouse assessed as tumor growth inhibition at 0.07 mg/g, ip dosed as 2 sequential daily injections followed by 7 consecutive days of without treatment and subsequent second dosing and measured on day9; assay type: functional, organism-based
Jurkat [25] = assay: Inhibition of cell proliferation of human Jurkat cells expressing inducible FLAG-tagged PFKFB incubated for 48 hrs by trypan blue dye exclusion assay; assay type: functional, cell-based
Jurkat [26] = assay: Suppression of glycolytic flux into lactate in human Jurkat cells expressing inducible FLAG-tagged PFKFB at 10 uM after 36 hrs by NMR spectroscopy; assay type: functional, cell-based
Jurkat [27] = assay: Reduction in ATP level in human Jurkat cells expressing inducible FLAG-tagged PFKFB at 10 uM after 24 hrs; assay type: functional, cell-based
Jurkat [28] = assay: Reduction in NAD+ level in human Jurkat cells expressing inducible FLAG-tagged PFKFB at 10 uM after 24 hrs; assay type: functional, cell-based
NHBE [29] = assay: Growth inhibition of human NHBE cells immortalized with human telomerase and large-T antigen and transformed with mutated Ras protein at 10 uM incubated for 48 to 72 hrs by trypan blue dye exclusion assay; assay type: functional, cell-based
[30] = Potency index, ratio of IC50 for 3BrPA to IC50 for test compound for growth inhibition of human NHBE cells immortalized with human telomerase and large-T antigen and transformed with mutated Ras protein at 1 uM incubated for 48 to 72 hrs by trypan blue dye exclusion assay; assay type: functional
Mus musculus [31] = assay: Reduction in F2,6BP production excised tumor of C57B1/6 mouse transplanted with mouse LLC cells at 0.07 mg/g, ip after 4 hrs post dose; assay type: functional, organism-based
CT26 = assay: Antitumor activity against mouse CT26 cells implanted in C57Bc16 mouse assessed as inhibition of tumor size at 20 or 23 mg/kg, ip measured during 7 to 22 days after tumor inoculation; assay type: functional, organism-based
U-87MG ATCC = assay: Antitumor activity against human U87MG cells implanted in C57Bc16 mouse assessed as inhibition of tumor size at 20 mg/kg, ip measured during 7 to 25 days after tumor inoculation; assay type: functional, organism-based

Structure (SMILES): CC(=O)Nc1ccc(/C=C/C(=O)c2ccncc2)cc1
growth inhibition (GI) (Homo sapiens): Active | growth inhibition (GI) (A549): Active | growth inhibition (GI) (HL-60 [1]): Active | growth inhibition (GI) (K562): Active | growth inhibition (GI) (MDA-MB-231 [2]): Active

Structure (SMILES): O=C(/C=C/c1ccccc1Cl)c1cccnc1
growth inhibition (GI) (Homo sapiens): Active | growth inhibition (GI) (A549): Active | growth inhibition (GI) (HL-60 [1]): Active | growth inhibition (GI) (K562): Active | growth inhibition (GI) (MDA-MB-231 [2]): Active

solubility at 2 h [3]: 1000 µg/mL | solubility at 8 h [4]: 1000 µg/mL | solubility at 4 h [5]: 1000 µg/mL
Structure (SMILES): Cl.O=C(/C=C/c1ccc2cccc(O)c2n1)c1ccncc1
inhibition (Lewis lung carcinoma): Active

IC50 (Jurkat [6]): > 4 µM
Structure (SMILES): O=C(/C=C/c1cnc2ccccc2c1)c1ccncc1

Structure (SMILES): O=C(/C=C/c1ccccc1Cl)c1ccccn1
growth inhibition (GI) (Homo sapiens): Active | growth inhibition (GI) (A549): Active | growth inhibition (GI) (HL-60 [1]): Active | growth inhibition (GI) (K562): Active | growth inhibition (GI) (MDA-MB-231 [2]): Active

Structure (SMILES): O=C(/C=C/c1ccc(Cl)cc1)c1cccnc1
growth inhibition (GI) (Homo sapiens): Active | growth inhibition (GI) (A549): Active | growth inhibition (GI) (HL-60 [1]): Dose-dependent effect | growth inhibition (GI) (K562): Dose-dependent effect | growth inhibition (GI) (MDA-MB-231 [2]): Active

inhibition [7]: > 80%
Structure (SMILES): O=C(/C=C/c1ccc2ccccc2n1)c1cccnc1
growth inhibition (GI) (Homo sapiens): Active | growth inhibition (GI) (A549): Active | growth inhibition (GI) (HL-60 [1]): Active | growth inhibition (GI) (K562): Active | growth inhibition (GI) (MDA-MB-231 [2]): Active

Structure (SMILES): O=C(/C=C/c1cccnc1)c1ccncc1
Activity (Jurkat [8]): Active | Activity (Jurkat [9]): Active | Ratio IC50 (Jurkat [10]): 2 | Activity (Jurkat [11]): Active | Imax (MDA-MB-231 [12]): 64% | inhibition (Jurkat [13]): Active | Activity (Jurkat [14]): Active | Ratio IC50 [15]: 10 | Activity (Mus musculus [16]): Active | Activity (Jurkat [17]): Active | growth inhibition (GI) (NHBE [18]): Active | Activity (Jurkat [19]): inactive | Ki [20]: 25.1 µM | TGI [21]: >75% | Activity [22]: Non-toxic | Activity (Mus musculus [23]): Active | TGI (HL-60 [24]): Active | inhibition (Jurkat [25]): Dose-dependent effect | Activity (Jurkat [26]): Active | Activity (Jurkat [27]): Active | Activity (Jurkat [28]): Active | growth inhibition (GI) (NHBE [29]): Active | Ratio IC50 [30]: 10 | Activity (Mus musculus [31]): Active

Structure (SMILES): O=C(/C=C/c1cccc2ccccc12)c1ccncc1
growth inhibition (GI) (Homo sapiens): Active | growth inhibition (GI) (A549): Active | growth inhibition (GI) (HL-60 [1]): Active | growth inhibition (GI) (K562): Active | growth inhibition (GI) (MDA-MB-231 [2]): Active

Structure (SMILES): Cc1cccc2ccc(/C=C/C(=O)c3ccncc3)nc12
inhibition (CT26): Active | inhibition (U-87MG ATCC): Active
